Test results: patent US20250346601A1, “HETEROCYCLIC COMPOUNDS FOR THE PREVENTION AND THERAPY OF CIRCADIAN RHYTHM DISORDERS” (UNIVERZITA PALACKEHO V OLOMOUCI, priority 2022, published 2025)
“And” between values parts separate entries of the source, which are not always exact repeats. Equal entries are not always repeated.

How the values were obtained:
[1] = tested on: NIH3T3 line transfected with the Per2-Luc reporter; assay: Period of the circadian rhythm in NIH3T3 fibroblasts with Per2-Luc reporter (luminescence, cosinor analysis); type: cell-based, mouse; settings: NIH3T3, DMSO control = 1.00
Procedure: NIH3T3 mouse embryonic fibroblasts were grown in standard DMEM with 10% fetal bovine serum. NIH3T3 cells were transfected with 1 μg of Per2-Luc reporter using GeneJuice and selected under hygromycin. The cell line was clonally expanded and a single monoclonal cell line was used for further experiments. Cells were cultured in a 96-well plate in growth medium to 90+% confluence. Test compound or vehicle (DMSO) was applied to recording medium with 100 U/ml penicillin, 100 μg/ml streptomycin, 1x GlutaMAX, 10% fetal calf serum and 0.1 mM Luciferin-EF (Promega Madison, WI, USA). Luminescence was recorded every hour for the next 144 hours. Circadian rhythm analysis was performed using cosinor analysis. Period length was expressed relative to the period of cells affected only by DMSO vehicle (their period length is therefore 1.00).

[2] = tested on: U2OS line transduced with the Bmal 1-Luc reporter; assay: Period of the circadian rhythm in U2OS cells with Bmal1-Luc reporter (luminescence, cosinor analysis); type: cell-based, Human; settings: U2OS, DMSO control = 1.00
Procedure: Human osteosarcoma U2OS cells were grown in standard DMEM medium with 10% fetal bovine serum. U2OS cells were transduced with lentiviral particles containing a Bmall-Luc fusion reporter and selected under Blasticidin. The cell line was clonally expanded and a single monoclonal cell line was used for further experiments. Cells were cultured in a 384-well plate in growth medium to 90+% confluence. Test compound or vehicle (DMSO) was applied to recording medium with 100 U/ml penicillin, 100 ug/ml streptomycin, 1x GlutaMAX, 10% fetal bovine serum, and 0.1 mM Luciferin-EF. Luminescence was recorded every hour for the next 144 hours. Circadian rhythm analysis was performed using cosinor analysis.
The length of the period was expressed relative to the period of cells affected only by DMSO vehicle (their period is therefore 1.00). […] The overall effect on circadian oscillations unequivocally proves that the compounds of formula I can be also used to temporally modulate the concentration and activity of not only BMAL1, but also other components of the oscillator including the critical components PER2, CRY and CLOCK in time, as these are an essential part of the mechanism generating the rhythmic expression of the luminescent reporter used. The concentration and level of other proteins, whose rhythmic expression is controlled by an oscillator in the brain and peripheral tissues (so-called clock-controlled genes), are also necessarily affected. The influence of the compounds of formula I on the activity of oscillator components and subordinate genes also means influencing the physiological processes of the cell controlled by these genes and proteins. N^6-furfuryladenine was used as a reference compound. […] The ability to shift the phase of the circadian cycle can be seen in FIG. 2.

SMILES | Period length ± standard error of the mean (expressed relative to control) at the indicated concentration ([2]; 10 μM) | Period length ± standard error of the mean (expressed relative to control) at the indicated concentration ([2]; 20 μM) | further results
CCOCn1cnc2c(NCc3ccco3)ncnc21 [9-(ethoxymethyl)-N-(furan-2-ylmethyl)-9H-purin-6-amine, reference compound] |  |  | Period length ± standard error of the mean (expressed relative to the control) at the indicated concentration ([1]; 50 μM): 50 μM: 1 ± 0.03; Period length ± standard error of the mean (expressed relative to control) at the indicated concentration ([2]; 50 μM): 50 μM: 1.01 ± 0.01
c1coc(CNc2ncnc3c2ncn3C2CCCC2)c1 [Compound 1] | 10 μM: 1.19 ± 0.02 |  | Period length ± standard error of the mean (expressed relative to the control) at the indicated concentration ([1]; 10 μM): 1.17 ± 0.01; Period length ± standard error of the mean (expressed relative to the control) at the indicated concentration ([1]; 50 μM): 1.54 ± 0.01
Cc1ccc(CNc2nc(Cl)nc3c2ncn3C2CCCCO2)o1 (centres unmarked) [Compound 13, 2-chloro-N-[(5-methylfuran-2-yl)methyl]-9-(tetrahydro-2H-pyran-2-yl)-9H-purin-6-amine] |  |  | Period length ± standard error of the mean (expressed relative to the control) at the indicated concentration ([1]; 10 μM): 10 μM: 1.19 ± 0.01
c1ccc(Cn2cnc3c(NCc4ccco4)ncnc32)cc1 [9-benzyl-N-(furan-2-ylmethyl)-9H-purin-6-amine, reference compound] | 10 μM: 1 ± 0.02 |  | Period length ± standard error of the mean (expressed relative to the control) at the indicated concentration ([1]; 10 μM): 10 μM: 1 ± 0.02
Clc1nc(NCc2ccco2)c2ncn(C3CCCCO3)c2n1 (centres unmarked) [Compound 9] | 1.09 ± 0.01 | 1.11 ± 0.01 | 
Clc1nc(NCc2ccco2)c2ncn(C3CCOCC3)c2n1 [Compound 10] | 10 μM: 1.09 ± 0.01 |  | Period length ± standard error of the mean (expressed relative to the control) at the indicated concentration ([1]; 10 μM): 10 μM: 1.14 ± 0.01
Cc1ccc(CNc2nc(N(C)C)nc3c2ncn3C2CCCCO2)o1 (centres unmarked) [Compound 51] |  |  | Period length ± standard error of the mean (expressed relative to the control) at the indicated concentration ([1]; 0.83 μM): 1.05 ± 0.02; Period length ± standard error of the mean (expressed relative to the control) at the indicated concentration ([1]; 10 μM): 1.08; Period length ± standard error of the mean (expressed relative to the control) at the indicated concentration ([1]; 50 μM): 0.02; 50 μM: 1.74 ± 0.2
OCCNc1nc(NCc2ccco2)c2ncn(C3CCOCC3)c2n1 [Compound 57] |  | 20 μM: 1.16 ± 0.01 | 
c1coc(CNc2nc(NC3CCCC3)nc3c2ncn3C2CCCCO2)c1 (centres unmarked) [Compound 39] |  | 20 μM: 1.05 ± 0.01 | 
c1coc(CNc2nc(N3CCOCC3)nc3c2ncn3C2CCOCC2)c1 [Compound 58] |  | 20 μM: 1.42 ± 0.04 | 
CC(C)Oc1nc(NCc2ccco2)c2ncn(C3CCOCC3)c2n1 [Compound 59] |  | 1.2 ± 0.01 and 1.11 ± 0.02 | 
CN(C)c1nc(NCc2ccco2)c2ncn(C3CCOCC3)c2n1 [Compound 53] |  | 20 μM: 1.22 ± 0.01 | 
CN(C)CCNc1nc(NCc2ccco2)c2ncn(C3CCOC3)c2n1 (centres unmarked) [Compound 28] |  | 20 μM: 1.16 ± 0 | 
CNc1nc(NCc2ccco2)c2ncn(C3CCOCC3)c2n1 [Compound 52] |  | 20 μM: 1.08 ± 0.01 | 
OCCNc1nc(NCc2ccco2)c2ncn(C3CCCC3)c2n1 [Compound 19] |  |  | Period length ± standard error of the mean (expressed relative to control) at the indicated concentration ([2]; 1 μM): 1.07 ± 0.01; Period length ± standard error of the mean (expressed relative to control) at the indicated concentration ([2]; 4 μM): 1.21 ± 0.01
Cc1ccc(CNc2ncnc3nc[nH]c23)o1 [N^6-(5-methylfurfuryl)adenine, reference compound] |  |  | Period length ± standard error of the mean (expressed relative to control) at the indicated concentration ([2]; 50 μM): 50 μM: 1.01 ± 0.02
Nc1ncnc2c1ncn2C1CCCO1 (centres unmarked) [9-(tetrahydrofuran-2-yl)-9H-purin-6-amine, reference compound] |  | 20 μM: 0.98 ± 0.02 | 
CN(C)CCNc1nc(NCc2ccco2)c2ncn(C3CCOCC3)c2n1 [Compound 55, N^2-(2-(dimethylamino)ethyl)-N^6-(furan-2-ylmethyl)-9-(tetrahydro-2H-pyran-4-yl)-9H-purine-2,6-diamine] |  |  | Period length ± standard error of the mean (expressed relative to control) at the indicated concentration ([2]; 4 μM): 4 μM: 1.16 ± 0.01
NCCNc1nc(NCc2ccco2)c2ncn(C3CCCCO3)c2n1 (centres unmarked) [Compound 41] |  | 1.32 ± 0.01 | Period length ± standard error of the mean (expressed relative to control) at the indicated concentration ([2]; 1 μM): 1.03 ± 0.01; Period length ± standard error of the mean (expressed relative to control) at the indicated concentration ([2]; 5 μM): 1.07 ± 0
CNc1nc(NCc2ccco2)c2ncn(C3CCOC3)c2n1 (centres unmarked) [Compound 25] |  | 20 μM: 1.06 ± 0.01 | 

SMILES | Period length ± standard error of the mean (expressed relative to control) at the indicated concentration ([2]; 10 μM) | Period length ± standard error of the mean (expressed relative to control) at the indicated concentration ([2]; 20 μM) | further results
Clc1nc(NCc2ccco2)c2ncn(C3CCOC3)c2n1 (centres unmarked) [Compound 8] | 1.04 ± 0.01 | 1.22 ± 0 | 
Clc1nc(NCc2ccco2)c2[nH]cnc2n1 [2-chloro-N^6-furfuryladenine, reference compound] |  | 20 μM: 1.00 ± 0.03 | 
Cc1ccc(CNc2nc(Cl)nc3c2ncn3C2CCCO2)o1 (centres unmarked) [Compound 12] | 10 μM: 1.16 + 0.01 |  | 
CN(C)c1nc(NCc2ccco2)c2ncn(C3CCCCCO3)c2n1 (centres unmarked) [Compound 61] | 1.04 ± 0.01 | 1.15 ± 0.02 | 
OCCNc1nc(NCc2ccco2)c2ncn(C3CCOC3)c2n1 (centres unmarked) [Compound 30] |  | 20 μM: 1.05 ± 0 | 
CN(CCN)c1nc(NCc2ccco2)c2ncn(C3CCCCO3)c2n1 (centres unmarked) [Compound 43] |  |  | Period length ± standard error of the mean (expressed relative to control) at the indicated concentration ([2]; 1 μM): 1 μM: 1.08 ± 0.01
c1coc(CNc2ncnc3c2ncn3C2CCCO2)c1 (centres unmarked) [Compound 2] | 10 μM: 1.05 ± 0.01 |  | 
CC(C)Oc1nc(NCc2ccco2)c2ncn(C3CCOC3)c2n1 (centres unmarked) [Compound 32] |  | 20 μM: 1.09 ± 0 | 
c1coc(CNc2nc(N3CCOCC3)nc3c2ncn3C2CCCCO2)c1 (centres unmarked) [Compound 47] |  | 1.47 ± 0.03 | Period length ± standard error of the mean (expressed relative to control) at the indicated concentration ([2]; 5 μM): 1.08 ± 0.01
CC(C)Oc1nc(NCc2ccco2)c2ncn(C3CCCCO3)c2n1 (centres unmarked) [Compound 49, N-(furan-2-ylmethyl)-2-isopropoxy-9-(tetrahydro-2H-pyran-2-yl)-9H-purin-6-amine] |  | 20 μM: 1.14 ± 0.01 | 
c1coc(CNc2ncnc3c2ncn3C2CCOCC2)c1 [Compound 5] | 10 μM: 1.05 ± 0.01 |  | 
CC(C)Oc1nc(NCc2ccco2)c2ncn(C3CCCC3)c2n1 [Compound 21] |  | 20 μM: 1.26 ± 0.06 | 
Clc1nc(NCc2ccco2)c2ncn(C3CCCO3)c2n1 (centres unmarked) [Compound 7] | 10 μM: 1.13 ± 0.02 |  | 
CN(CCN)c1nc(NCc2ccco2)c2ncn(C3CCOCC3)c2n1 [Compound 54] |  |  | Period length ± standard error of the mean (expressed relative to control) at the indicated concentration ([2]; 5 μM): 5 μM: 1.14 ± 0.02
c1coc(CNc2ncnc3c2ncn3C2CCOC2)c1 (centres unmarked) [Compound 3, N-(furan-2-ylmethyl)-9-(tetrahydrofuran-3-yl)-9H-purin-6-amine] | 10 μM: 1.06 ± 0.01 |  | 
c1coc(CNc2nc(N3CCOCC3)nc3c2ncn3C2CCOC2)c1 (centres unmarked) [Compound 31] |  | 20 μM: 1.13 ± 0.01 | 
CN(CCN)c1nc(NCc2ccco2)c2ncn(C3CCOC3)c2n1 (centres unmarked) [Compound 27] |  | 20 μM: 1.25 ± 0.01 | 
NCCNc1nc(NCc2ccco2)c2ncn(C3CCOC3)c2n1 (centres unmarked) [Compound 29] |  | 20 μM: 1.09 ± 0 | 
c1coc(CNc2nc(N3CCCC3)nc3c2ncn3C2CCCCO2)c1 (centres unmarked) [Compound 40] | 10 μM: 1.04 ± 0 |  | 
